{"source": "patent US20170362292A1", "about": "“S-Alkylated Hepcidin Peptides and Methods of Making and Using Thereof” (priority 2014, published 2017)", "key": {"human ferroportin-GFP": {"biological_target": "T1, human ferroportin-GFP (Homo sapiens, UniProt Q9NP59)", "T1 sequence (Q9NP59 1-571)": "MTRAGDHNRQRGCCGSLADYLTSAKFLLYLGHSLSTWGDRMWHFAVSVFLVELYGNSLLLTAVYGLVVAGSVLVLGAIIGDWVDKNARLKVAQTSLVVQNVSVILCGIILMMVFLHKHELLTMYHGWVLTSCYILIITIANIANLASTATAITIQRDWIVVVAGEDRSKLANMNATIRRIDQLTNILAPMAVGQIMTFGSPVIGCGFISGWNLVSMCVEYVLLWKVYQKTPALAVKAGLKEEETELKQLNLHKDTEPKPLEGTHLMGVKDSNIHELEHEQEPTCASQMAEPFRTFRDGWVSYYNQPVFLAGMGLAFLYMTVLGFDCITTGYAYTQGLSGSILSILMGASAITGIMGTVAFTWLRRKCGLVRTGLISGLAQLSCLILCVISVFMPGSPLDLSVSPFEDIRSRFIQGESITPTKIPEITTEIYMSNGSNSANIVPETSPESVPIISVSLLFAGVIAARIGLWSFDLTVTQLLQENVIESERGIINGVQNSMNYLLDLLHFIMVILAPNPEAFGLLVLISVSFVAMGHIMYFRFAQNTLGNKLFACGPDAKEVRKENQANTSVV", "assay": "cellular assay based on Fpn degradation (HEK293:TREX-Fpn-GFP cells, flow cytometry)", "assay_type": "cell-based", "procedure": "The S-alkylated hepcidin peptides were tested in vitro using a previously described cellular assay based on Fpn degradation. See e.g., Nemeth, et al. (2006) Blood 107: 328. Briefly, HEK293:TREX-Fpn-GFP, a cell line stably transfected with the human ferroportin-GFP construct under the control of doxycycline-inducible promoter, was plated on poly-D-lysine-coated plates in the presence of 20 μM FAC. Fpn expression was induced with 500 ng/mL doxycycline treatment for 24 hours. Then, doxycycline was washed off, and cells were treated with peptides for 24 hours. Cells were then trypsinized and resuspended at 1×10^6 cells/mL, and the intensity of green fluorescence was analyzed by flow cytometry using FAC Scan (fluorescence activated cell scanner) Analytic Flow Cytometer (Becton Dickinson, San Jose, Calif.) with CellQuest version 3.3 software. Cells not induced with doxycycline to express Fpn-GFP were used to establish a gate to exclude background fluorescence. Cells induced with doxycycline, but not treated with any peptides, were used as the positive control. Each peptide treatment was repeated independently 3 to 6 times. […] Hydrophobicity may also play a role, as activity increases in the carboxy-esters-substituent(s) order: —CH3<—C2H5<—C4H9 (PR73 SC<PR73 SB<PR73 SA).\nIn vitro activity may be measured by the dose-dependent loss of fluorescence of cells engineered to display ferroportin fused to green fluorescent protein as in Nemeth et al. (2006) Blood 107:328-33."}, "[1]": {"assay": "serum iron in C57BL/6 mice after intraperitoneal peptide injection", "assay_type": "in vivo", "conditions": "50-100 nmoles/mouse, vs PBS-injected mice", "procedure": "Based on in vitro results, PR73SH was selected as a suitable candidate for animal studies, which were carried out as previously described. See Preza, et al. (2011) J. Clin. Invest. 121:4880; Ramos, et al. (2012) Blood 120:3829; and Nemeth, et al. (2006) Blood 107:328. Animal studies were approved by the Animal Research Committee at UCLA. Briefly, C57BL/6 mice were obtained from The Jackson Laboratory (Bar Harbor, Me.) and were maintained on NIH 31 rodent diet (iron content 336 mg/kg; Harlan Teklad, Indianapolis, […]). Mice were injected intraperitoneally either with 100 μL PBS (control) or with 50 or 100 nmoles peptide in 100 μL PBS. Mice were killed 6, 24, and 48 hours later, blood was collected by cardiac puncture, and serum was separated using Microtainer tubes (Becton Dickinson, Franklin Lakes, N.J.). Serum iron was determined by using a colorimetric assay (Diagnostic Chemicals, Oxford, Conn.), which was modified for the microplate format so that 50 μL serum was used per measurement. See Nemeth, et al. (2004) J. Clin. Invest. 113(9): 1271-1276. The results were expressed as the percentage of decrease in serum iron when compared with the average value of serum iron levels in PBS-injected mice.\nIn vivo activity of PR73SH and PR73 was compared by assaying serum iron levels at 3 time points: (6, 24, and 48 hours) and concentrations that were previously shown to be sufficient for PR73 to exert potent bioactivity (50-100 nmoles/mouse)."}, "[2]": {"assay": "storage stability in DMSO (LC/MS/MS)", "assay_type": "physicochemical", "conditions": "10 mM solution, room temperature, 30 days", "text": "Thus, the present invention also provides storage stable compositions comprising one or more S-alkylated hepcidin peptides."}, "[3]": {"conditions": "peptide treatment 24 hours, loss of GFP fluorescence relative to Hep25, read-out: EC50 [nM] TREX-hFpn-GFP cells"}}, "note": "Where two headings read alike, the source gives them in different places.", "data": [{"compound": "CCCCCCCCCCCCCCCCNC(=O)CN(CC(N)=O)C(=O)CCCCCNC(=O)C[C@H](Cc1ccccc1)NC(=O)[C@H](CCCNC(=N)N)NC(=O)[C@H](CS)NC(=O)[C@H](CCCNC(=N)N)NC(=O)C[C@@H]1CCCN1C(=O)[C@@H](NC(=O)[C@H](Cc1c[nH]cn1)NC(=O)[C@@H](NC(=O)CNCC(=O)O)[C@@H](C)O)C(c1ccccc1)c1ccccc1", "note": "[PR73, reference compound]", "values": [{"measurement": "EC50", "setting": "human ferroportin-GFP; [3]", "result": "4.2 ± 0.3", "unit": "nM"}, {"measurement": "serum iron", "setting": "[1]; 6 hour time point", "result": "decreased serum iron"}, {"measurement": "serum iron", "setting": "[1]; 24 hour time point", "result": "decreased serum iron"}]}, {"compound": "CCCCCCCCCCCCCCCCNC(=O)CN(CC(N)=O)C(=O)CCCCCNC(=O)C[C@H](Cc1ccccc1)NC(=O)[C@H](CCCNC(=N)N)NC(=O)[C@H](CSC(=CC(=O)OCC)C(=O)OCC)NC(=O)[C@H](CCCNC(=N)N)NC(=O)C[C@@H]1CCCN1C(=O)[C@@H](NC(=O)[C@H](Cc1c[nH]cn1)NC(=O)[C@@H](NC(=O)CNCC(=O)O)[C@@H](C)O)C(c1ccccc1)c1ccccc1", "note": "[PR73SB]", "values": [{"measurement": "DC50", "setting": "human ferroportin-GFP; [3]", "result": "10.4 ± 1.2", "unit": "nM"}]}, {"compound": "CCCCCCCCCCCCCCCCNC(=O)CN(CC(N)=O)C(=O)CCCCCNC(=O)C[C@H](Cc1ccccc1)NC(=O)[C@H](CCCNC(=N)N)NC(=O)[C@H](CSC(=CC(=O)OC)C(=O)OC)NC(=O)[C@H](CCCNC(=N)N)NC(=O)C[C@@H]1CCCN1C(=O)[C@@H](NC(=O)[C@H](Cc1c[nH]cn1)NC(=O)[C@@H](NC(=O)CNCC(=O)O)[C@@H](C)O)C(c1ccccc1)c1ccccc1", "note": "[PR73SC]", "values": [{"measurement": "DC50", "setting": "human ferroportin-GFP; [3]", "result": "12.6 ± 1.8", "unit": "nM"}]}, {"compound": "CCCCCCCCCCCCCCCCNC(=O)CN(CC(N)=O)C(=O)CCCCCNC(=O)C[C@H](Cc1ccccc1)NC(=O)[C@H](CCCNC(=N)N)NC(=O)[C@H](CSC=CC(=O)O)NC(=O)[C@H](CCCNC(=N)N)NC(=O)C[C@@H]1CCCN1C(=O)[C@@H](NC(=O)[C@H](Cc1c[nH]cn1)NC(=O)[C@@H](NC(=O)CNCC(=O)O)[C@@H](C)O)C(c1ccccc1)c1ccccc1", "note": "[PR73SD]", "values": [{"measurement": "DC50", "setting": "human ferroportin-GFP; [3]", "result": "218 ± 13.4", "unit": "nM"}]}, {"compound": "CCCCCCCCCCCCCCCCNC(=O)CN(CC(N)=O)C(=O)CCCCCNC(=O)C[C@H](Cc1ccccc1)NC(=O)[C@H](CCCNC(=N)N)NC(=O)[C@H](CSC(=CS(=O)(=O)C(C)(C)C)S(=O)(=O)C(C)(C)C)NC(=O)[C@H](CCCNC(=N)N)NC(=O)C[C@@H]1CCCN1C(=O)[C@@H](NC(=O)[C@H](Cc1c[nH]cn1)NC(=O)[C@@H](NC(=O)CNCC(=O)O)[C@@H](C)O)C(c1ccccc1)c1ccccc1", "note": "[PR73SF]", "values": [{"measurement": "DC50", "setting": "human ferroportin-GFP; [3]", "result": "10 ± 3.4", "unit": "nM"}]}, {"compound": "CCCCCCCCCCCCCCCCNC(=O)CN(CC(N)=O)C(=O)CCCCCNC(=O)C[C@H](Cc1ccccc1)NC(=O)[C@H](CCCNC(=N)N)NC(=O)[C@H](CSC(=CC(N)=O)C(N)=O)NC(=O)[C@H](CCCNC(=N)N)NC(=O)C[C@@H]1CCCN1C(=O)[C@@H](NC(=O)[C@H](Cc1c[nH]cn1)NC(=O)[C@@H](NC(=O)CNCC(=O)O)[C@@H](C)O)C(c1ccccc1)c1ccccc1", "note": "[PR73SG]", "values": [{"measurement": "DC50", "setting": "human ferroportin-GFP; [3]", "result": "8.4 ± 2.5", "unit": "nM"}]}, {"compound": "CCCCCCCCCCCCCCCCNC(=O)CN(CC(N)=O)C(=O)CCCCCNC(=O)C[C@H](Cc1ccccc1)NC(=O)[C@H](CCCNC(=N)N)NC(=O)[C@H](CSC(=CP(=O)(OCC)OCC)P(=O)(OCC)OCC)NC(=O)[C@H](CCCNC(=N)N)NC(=O)C[C@@H]1CCCN1C(=O)[C@@H](NC(=O)[C@H](Cc1c[nH]cn1)NC(=O)[C@@H](NC(=O)CNCC(=O)O)[C@@H](C)O)C(c1ccccc1)c1ccccc1", "note": "[PR73SH]", "values": [{"measurement": "DC50", "setting": "human ferroportin-GFP; read-out: EC50 [nM] TREX-hFpn-GFP cells, peptide treatment 24 hours, loss of GFP fluorescence relative to Hep25", "result": "1.1 ± 0.1", "unit": "nM"}, {"measurement": "serum iron", "setting": "[1]; 6 hour time point", "result": "decreased serum iron"}, {"measurement": "serum iron", "setting": "[1]; 24 hour time point", "result": "decreased serum iron"}, {"measurement": "stability", "setting": "[2]", "result": "99.5±0.5", "unit": "%"}]}]}
